Experimental data taken from paper PMC11546339, “Conformational Plasticity Enhances the Brain Penetration of a Metabolically Stable, Dual-Functional Opioid-Peptide CycloAnt” (International Journal of Molecular Sciences, 2024).
Where a SMILES comes first, the peptide text is derived from it. Bridges are numbered along the chain shown (N, C = ends). [ ]: non-standard residue; d: D form. 2Abz = Nc1ccccc1C(=O)O; Dap = NC[C@H](N)C(=O)O

Columns and labels:
[1] = Metabolism by CYP450 in mouse liver microsomes (NADPH); assay type: in vitro ADME; conditions: 3.07 μM, 0.5 mg/mL microsomes, 1 mM NADPH, 37 °C, 120 min
Protocol: The metabolic stability of CycloAnt was then evaluated in mouse liver microsomes. CycloAnt at a final concentration of 3.07 μM was mixed with 0.5 mg/mL liver microsomes in the presence of 1 mM of NADPH and incubated at 37 °C for 2 h. At 0, 5, 15, 30, 60, and 120 min, incubation mixtures were withdrawn and processed. The supernatant was analyzed by LC-MS/MS. The percentage of CycloAnt remaining at each time point was calculated (Figure 3a).
Metabolism by CYP450 in liver microsomes. CycloAnt dissolved in pH 7.2 PBS was diluted to 8 μM. Six hundred microliters of CycloAnt were incubated with 800 μL of 0.975 mg/mL mouse liver microsomes and 160 μL of 10 mM NADPH at 37 °C for 0, 5, 15, 30, 60, and 120 min. The final concentrations of CycloAnt, mouse liver microsomes, and NADPH in the incubation mixture were 3.07 μM, 0.5 mg/mL, and 1 mM, respectively. At the designated time points, 100 μL of the incubation mixture were withdrawn and mixed with 200 μL ice-cold acetonitrile containing internal standard (IS, Tyr-[D-Lys-Phe-Tyr-Gly]), followed by centrifugation at 10,000× g at 4 °C for 10 min. An aliquot of 250 μL of supernatant was collected and dried in vacuum. The dried sample was reconstituted in 100 μL of 20% acetonitrile and stored at −20 °C before analyzed by LC-MS/MS on the next day. The experiment was performed in duplicate.

[2] = molecular target: T1, mouse DOR (Mus musculus, UniProt P32300); test: Opioid receptor radioligand binding assay ([3H]diprenorphine), DOR; conditions: CHO cell membranes, read-out: binding affinity (Ki) at DOR
T1 construct: expressed in transfected cells
Protocol: (§1) CycloAnt is a lariat peptide that acts in vivo as a bifunctional MOR agonist and DOR antagonist, which was confirmed in our previous study using opioid receptor individually knock-out (OP KO) mice. In the current study, the binding affinities of CycloAnt to the three opioid receptors are determined using cell-based radioligand opioid receptor binding assays. […] At the KOR, CycloAnt at 1 μM inhibits 6% and at 10 μM inhibits 26% of [^3H]diprenorphine binding.
(§2) Opioid receptor radioligand binding assay. Membranes of CHO cells stably expressing the rat MOR, mouse DOR, or human KOR were used in the experiments. [^3H]diprenorphine (PerkinElmer, Waltham, MA, at the time of experiment calculated to have specific activity 35 Ci/mmol) was used as the radioligand for the MOR, DOR, and KOR. Competition inhibition of [^3H]diprenorphine (0.3–0.4 nM) binding to the MOR or DOR was conducted in 50 mM Tris-HCl buffer (pH 7.4) with an adequate number of cell membranes for each receptor and […] of CycloAnt. […] Binding reactions were terminated by rapid filtration under vacuum over GF/B filters presoaked in 0.1% polyethyleneimine, and the bound radioactivity was counted by liquid scintillation counting. […] Binding data were analyzed using GraphPad Prism software (version 10.2.3) and IC50 values (the concentration necessary to inhibit 50 percent of radioligand binding) and Ki values were calculated. […]

[3] = molecular target: T2, human KOR (Homo sapiens, UniProt P41145); test: Opioid receptor radioligand binding assay ([3H]diprenorphine), KOR
T2 construct: expressed in transfected cells
Protocol: as §1, §2

T2 sequence (P41145 whole entry): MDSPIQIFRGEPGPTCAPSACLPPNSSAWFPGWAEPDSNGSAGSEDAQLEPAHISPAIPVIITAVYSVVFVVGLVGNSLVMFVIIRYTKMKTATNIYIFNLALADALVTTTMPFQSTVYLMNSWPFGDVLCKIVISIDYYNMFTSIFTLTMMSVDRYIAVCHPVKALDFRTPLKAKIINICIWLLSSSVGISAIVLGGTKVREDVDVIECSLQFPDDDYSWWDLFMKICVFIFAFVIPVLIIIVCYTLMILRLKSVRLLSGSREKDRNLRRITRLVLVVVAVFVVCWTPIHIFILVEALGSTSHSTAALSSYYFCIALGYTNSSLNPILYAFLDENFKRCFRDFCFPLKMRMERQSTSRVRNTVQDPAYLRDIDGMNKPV
T1 sequence (P32300 whole entry): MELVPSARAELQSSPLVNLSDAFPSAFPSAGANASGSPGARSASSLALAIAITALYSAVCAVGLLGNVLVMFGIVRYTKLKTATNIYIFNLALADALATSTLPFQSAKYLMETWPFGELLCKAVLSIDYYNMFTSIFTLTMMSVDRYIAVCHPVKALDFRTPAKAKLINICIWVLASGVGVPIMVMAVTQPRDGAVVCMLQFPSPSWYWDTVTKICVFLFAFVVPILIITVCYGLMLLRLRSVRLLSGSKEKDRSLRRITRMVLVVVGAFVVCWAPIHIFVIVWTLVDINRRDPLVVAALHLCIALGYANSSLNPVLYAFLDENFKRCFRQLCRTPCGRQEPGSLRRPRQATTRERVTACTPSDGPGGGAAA

Q: With `C[C@@H](O)[C@@H]1NC(=O)[C@H](CNC(=O)c2ccccc2N)NC(=O)[C@H](NC(=O)[C@@H](N)Cc2ccc(O)cc2)CCCCNC(=O)CNC1=O` [CycloAnt] (H-Y[dK][Dap](2Abz)TG; lactam 2-C) as the compound, how does the “stability in mouse liver microsomes with NADPH (CYP450)” value [1] read?
A: Its value is “no significant concentration change”.

Q: And the Ki [2]?
A: Its Ki is 7.85 ± 0.77 nM.

Q: And the inhibition at 1 µM ([3]; CycloAnt at 1 μM)?
A: The inhibition at 1 µM was 6%.

Q: What about the inhibition at 10 µM ([3]; CycloAnt at 10 μM) of the same compound?
A: Its inhibition at 10 µM is 26%.
